Values quoted from earlier work as cited in US8431374B2, “Methods for the economical production of biofuel from biomass” (Gevo, Inc., priority 2007, dated 2013).

What was measured:
Klyveromyces marxianus = conditions: in binary combination (Ballesteros 2004)
[1] = logarithm of the octanol:water partition coefficient

For `CC(C)O` [2-propanol], the Solubility in water (20° C., given in words) is listed as “miscible”.
For `COc1cc(C=O)ccc1O` [Vanillin, vanillin], the “reduction in both cell growth and fermentation” value (Klyveromyces marxianus) is given as 90%.
For `CCC(C)O` (centres unmarked) [2-butanol], the “log P” value [1] is listed as 0.6.
For `CC(C)CO` [isobutanol], the “log P” value [1] is listed as 0.79.
For `CCCCCCCCO` [1-octanol], the solubility limit (octanol, two-phase system (Chen, Q. 1995)) is given as under 1100 µg/mL.
